From patent EP4656642A1, “ESTROGEN RECEPTOR PROTEOLYSIS TARGETING CHIMERA COMPOUND AND USE THEREOF” (GAN & LEE PHARM CO., LTD, priority 2023, dated 2024)

Key:
Assay type in all cases: cell-based
T-47D cells = experiment: Inhibition of cell proliferation in T-47D cells (CCK-8, 6 days); settings: 6 days of treatment, Table 3
Summary of the method: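 Viability read-out was CCK-8 after 6 days of compound treatment (37 °C, 5% CO2) across graded concentrations. Cells were T-47D seeded at 3,000 per well in 1640 medium plus 10% FBS. IC50 was calculated against proliferation.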

MCF-7 cells = experiment: Inhibition of cell proliferation of MCF-7 cells (CCK-8, 9 days); settings: treated for 9 days, CCK-8 kit (Table 6)
Summary of the method: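 Read-out was CCK-8 viability after 9-day continuous exposure (37°C, 5% CO2) of MCF-7 cells plated at 800/well in 10% FBS DMEM across several compound concentrations. Values are proliferation IC50s.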

ERα [1] = molecular target: T1, ERα (Homo sapiens, UniProt P03372); experiment: Degradation of ERα in MCF-7 cells (immunoblotting, 4 h)
T1 sequence (P03372 1-595): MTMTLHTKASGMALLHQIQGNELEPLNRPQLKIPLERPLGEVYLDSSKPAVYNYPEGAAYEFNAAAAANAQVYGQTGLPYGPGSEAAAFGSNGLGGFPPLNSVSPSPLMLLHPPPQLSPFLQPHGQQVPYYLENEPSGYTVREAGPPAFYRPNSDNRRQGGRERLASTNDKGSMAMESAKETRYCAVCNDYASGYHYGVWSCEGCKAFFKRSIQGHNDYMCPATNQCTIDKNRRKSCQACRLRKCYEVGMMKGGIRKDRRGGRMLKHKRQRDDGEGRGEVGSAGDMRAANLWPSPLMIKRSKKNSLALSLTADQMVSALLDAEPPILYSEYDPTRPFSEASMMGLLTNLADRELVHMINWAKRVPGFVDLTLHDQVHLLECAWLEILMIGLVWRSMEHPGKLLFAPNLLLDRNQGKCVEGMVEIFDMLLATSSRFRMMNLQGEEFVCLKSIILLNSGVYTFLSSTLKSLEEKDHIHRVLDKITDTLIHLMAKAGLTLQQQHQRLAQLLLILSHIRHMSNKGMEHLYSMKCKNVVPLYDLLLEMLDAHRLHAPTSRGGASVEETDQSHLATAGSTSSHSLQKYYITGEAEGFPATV
Summary of the method: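 Degradation rate reflects ERα band intensity, corrected to an internal reference protein, relative to control. Values come from Western blotting of lysates from MCF-7 cells exposed 4 h at 37°C to compounds at final concentrations of 0.15-1000nM.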

ERα [2] = molecular target: T1, ERα; experiment: Degradation of ERα in T-47D cells (immunoblotting, 4 h); design: host or cells: T-47D
Summary of the method: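 ERα protein levels were assessed by immunoblot of RIPA lysates (with protease inhibitor) after 4 h exposure at 37°C. Compound was added in DMSO to T-47D cells at final concentrations of 0.15-1000 nM.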

Compound: O=C1CCC(N2Cc3c(ccc4c3OCC43CCN(C(=O)C4CCC(CN5CCN(c6ccc(C7c8ccc(O)cc8CCC7c7ccccc7)cc6)CC5)CC4)CC3)C2=O)C(=O)N1 (stereo not drawn) [C5]
- IC50 (T-47D cells): 1.3 nM
- IC50 (MCF-7 cells): 6.7 nM
- Degradation rate (%) of ERα in MCF-7 cells (ERα [1]; 1nM compound): 43%
- Degradation rate (%) of ERα in MCF-7 cells (ERα [1]; 10nM compound): 66%
- Degradation rate (%) of ERα in T-47D cells (ERα [2]; 1nM compound): 52%
- Degradation rate (%) of ERα in T-47D cells (ERα [2]; 10nM compound): 77%

Compound: O=C1CCC(N2Cc3c(ccc4c3OCC43CCN(C(=O)C4CCN(C5CCN(c6ccc([C@@H]7c8ccc(O)cc8CC[C@@H]7c7ccccc7)cc6)CC5)CC4)CC3)C2=O)C(=O)N1 (stereo partly drawn) [K7]
- IC50 (T-47D cells): 1.41 nM
- IC50 (MCF-7 cells): 10.6 nM
- Degradation rate (%) of ERα in MCF-7 cells (ERα [1]; 1nM compound): 55%
- Degradation rate (%) of ERα in MCF-7 cells (ERα [1]; 10nM compound): 64%
- Degradation rate (%) of ERα in T-47D cells (ERα [2]; 1nM compound): 63%
- Degradation rate (%) of ERα in T-47D cells (ERα [2]; 10nM compound): 79%

Compound: O=C1CCC(N2Cc3c(ccc4c3OCC43CCN(C4CCN(C5CCN(c6ccc([C@@H]7c8ccc(O)cc8CC[C@@H]7c7ccccc7)cc6)CC5)CC4)CC3)C2=O)C(=O)N1 (stereo partly drawn) [A54]
- IC50 (T-47D cells): 6.16 nM
- IC50 (MCF-7 cells): < 0.256 nM
- Degradation rate (%) of ERα in MCF-7 cells (ERα [1]; 1nM compound): 40%
- Degradation rate (%) of ERα in MCF-7 cells (ERα [1]; 10nM compound): 65%
- Degradation rate (%) of ERα in T-47D cells (ERα [2]; 1nM compound): 15%
- Degradation rate (%) of ERα in T-47D cells (ERα [2]; 10nM compound): 62%

Compound: O=C1CCC(N2Cc3cc4c(cc3C2=O)OC2(CC4)CN(C3CCN(C(=O)c4ccc([C@@H]5c6ccc(O)cc6CC[C@@H]5c5ccccc5)cc4)CC3)C2)C(=O)N1 (stereo partly drawn) [H11]
- IC50 (T-47D cells): 124 nM
- IC50 (MCF-7 cells): 24100 nM
- Degradation rate (%) of ERα in MCF-7 cells (ERα [1]; 1nM compound): -39%
- Degradation rate (%) of ERα in MCF-7 cells (ERα [1]; 10nM compound): -41%
- Degradation rate (%) of ERα in T-47D cells (ERα [2]; 1nM compound): -16%
- Degradation rate (%) of ERα in T-47D cells (ERα [2]; 10nM compound): 8%

Compound: O=C1CCC(N2Cc3c(ccc4c3OCC43CCN(CC4(F)CCN(C(=O)C5CCN(c6ccc([C@@H]7c8ccc(O)cc8CC[C@@H]7c7ccccc7)cc6)CC5)CC4)CC3)C2=O)C(=O)N1 (stereo partly drawn) [A105]
- IC50 (T-47D cells): 1.3 nM
- IC50 (MCF-7 cells): 26600 nM
- Degradation rate (%) of ERα in MCF-7 cells (ERα [1]; 1nM compound): 7%
- Degradation rate (%) of ERα in MCF-7 cells (ERα [1]; 10nM compound): 43%
- Degradation rate (%) of ERα in T-47D cells (ERα [2]; 1nM compound): 38%
- Degradation rate (%) of ERα in T-47D cells (ERα [2]; 10nM compound): 73%

Compound: C[C@@H]1Cc2c(ccc3[nH]ncc23)[C@@H](c2c(F)cc(N3CCC4(CCN(CC(=O)N5CCC6(CC5)COc5c6ccc6c5CN(C5CCC(=O)NC5=O)C6=O)CC4)CC3)cc2F)N1CC(F)F (stereo partly drawn) [C10]
- IC50 (T-47D cells): 0.5 nM
- IC50 (MCF-7 cells): 54.8 nM
- Degradation rate (%) of ERα in MCF-7 cells (ERα [1]; 1nM compound): 53%
- Degradation rate (%) of ERα in MCF-7 cells (ERα [1]; 10nM compound): 65%
- Degradation rate (%) of ERα in T-47D cells (ERα [2]; 1nM compound): 65%
- Degradation rate (%) of ERα in T-47D cells (ERα [2]; 10nM compound): 80%

Compound: O=C1CCC(N2Cc3cc4c(cc3C2=O)CCC2(CN(CC3CCC5(CC3)CN(c3ccc([C@@H]6c7ccc(O)cc7CC[C@@H]6c6ccccc6)cc3)C5)C2)O4)C(=O)N1 (stereo partly drawn) [M15]
- IC50 (T-47D cells): 6 nM
- IC50 (MCF-7 cells): 48 nM
- Degradation rate (%) of ERα in MCF-7 cells (ERα [1]; 1nM compound): -23%
- Degradation rate (%) of ERα in MCF-7 cells (ERα [1]; 10nM compound): -24%
- Degradation rate (%) of ERα in T-47D cells (ERα [2]; 1nM compound): -15%
- Degradation rate (%) of ERα in T-47D cells (ERα [2]; 10nM compound): 13%

Compound: O=C1CCC(N2Cc3ccc4c(c3C2=O)OCC2(CCN(CC3CCN(c5ccc([C@@H]6c7ccc(O)cc7CC[C@@H]6c6ccccc6)cc5)CC3)CC2)C4)C(=O)N1 (stereo partly drawn) [H5]
- IC50 (T-47D cells): 22.4 nM
- IC50 (MCF-7 cells): 2260 nM
- Degradation rate (%) of ERα in MCF-7 cells (ERα [1]; 1nM compound): -3%
- Degradation rate (%) of ERα in MCF-7 cells (ERα [1]; 10nM compound): -12%
- Degradation rate (%) of ERα in T-47D cells (ERα [2]; 1nM compound): 18%
- Degradation rate (%) of ERα in T-47D cells (ERα [2]; 10nM compound): 12%

Compound: O=C1CCC(N2Cc3c(ccc4c3OCC43CCN(C(=O)c4ccc(CN5CCN(c6ccc([C@@H]7c8ccc(O)cc8CC[C@@H]7c7ccccc7)cc6)CC5)nc4)CC3)C2=O)C(=O)N1 (stereo partly drawn) [B47]
- IC50 (T-47D cells): 1.29 nM
- IC50 (MCF-7 cells): 27100 nM
- Degradation rate (%) of ERα in MCF-7 cells (ERα [1]; 1nM compound): 28%
- Degradation rate (%) of ERα in MCF-7 cells (ERα [1]; 10nM compound): 33%
- Degradation rate (%) of ERα in T-47D cells (ERα [2]; 1nM compound): 59%
- Degradation rate (%) of ERα in T-47D cells (ERα [2]; 10nM compound): 65%

Compound: O=C1CCC(N2Cc3ccc4c(c3C2=O)OCC42CCN(C3CCN(C(=O)C4CCN(c5ccc([C@@H]6c7ccc(O)cc7CC[C@@H]6c6ccccc6)cc5)CC4)CC3)CC2)C(=O)N1 (stereo partly drawn) [A94]
- IC50 (T-47D cells): 2.74 nM
- IC50 (MCF-7 cells): 45 nM
- Degradation rate (%) of ERα in MCF-7 cells (ERα [1]; 1nM compound): 22%
- Degradation rate (%) of ERα in MCF-7 cells (ERα [1]; 10nM compound): 48%
- Degradation rate (%) of ERα in T-47D cells (ERα [2]; 1nM compound): 54%
- Degradation rate (%) of ERα in T-47D cells (ERα [2]; 10nM compound): 80%

Compound: O=C1CCC(N2Cc3c(ccc4c3OCC43CCN(C4CCC5(CC4)CN(c4ccc([C@@H]6c7ccc(O)cc7CC[C@@H]6c6ccccc6)cc4)C5)CC3)C2=O)C(=O)N1 (stereo partly drawn) [L11]
- IC50 (T-47D cells): 4 nM
- IC50 (MCF-7 cells): 5 nM
- Degradation rate (%) of ERα in MCF-7 cells (ERα [1]; 1nM compound): 37%
- Degradation rate (%) of ERα in MCF-7 cells (ERα [1]; 10nM compound): 60%
- Degradation rate (%) of ERα in T-47D cells (ERα [2]; 1nM compound): 14%
- Degradation rate (%) of ERα in T-47D cells (ERα [2]; 10nM compound): 69%

Compound: CC1CN(C2CCN(c3ccc([C@@H]4c5ccc(O)cc5CC[C@@H]4c4ccccc4)cc3)CC2)CCC1N1CCC2(CC1)COc1c2ccc2c1CN(C1CCC(=O)NC1=O)C2=O (stereo partly drawn) [K19]
- IC50 (T-47D cells): 5.34 nM
- IC50 (MCF-7 cells): 48.6 nM
- Degradation rate (%) of ERα in MCF-7 cells (ERα [1]; 1nM compound): 32%
- Degradation rate (%) of ERα in MCF-7 cells (ERα [1]; 10nM compound): 63%
- Degradation rate (%) of ERα in T-47D cells (ERα [2]; 1nM compound): 21%
- Degradation rate (%) of ERα in T-47D cells (ERα [2]; 10nM compound): 56%

Compound: O=C1CCC(N2Cc3ccc4c(c3C2=O)OC2(CC4)CCN(CC3CCN(c4ccc([C@@H]5c6ccc(O)cc6CC[C@@H]5c5ccccc5)cc4)CC3)CC2)C(=O)N1 (stereo partly drawn) [H7]
- IC50 (T-47D cells): 10.4 nM
- IC50 (MCF-7 cells): 330 nM
- Degradation rate (%) of ERα in MCF-7 cells (ERα [1]; 1nM compound): 12%
- Degradation rate (%) of ERα in MCF-7 cells (ERα [1]; 10nM compound): -2%
- Degradation rate (%) of ERα in T-47D cells (ERα [2]; 1nM compound): -11%
- Degradation rate (%) of ERα in T-47D cells (ERα [2]; 10nM compound): -15%

Compound: O=C1CCC(N2Cc3c(ccc4c3OCC43CCN(C(=O)CN4CC5(CCN(c6ccc([C@@H]7c8ccc(O)cc8CC[C@@H]7c7ccccc7)cc6)CC5)C4)CC3)C2=O)C(=O)N1 (stereo partly drawn) [K8]
- IC50 (T-47D cells): 2.07 nM
- IC50 (MCF-7 cells): 10.5 nM
- Degradation rate (%) of ERα in MCF-7 cells (ERα [1]; 1nM compound): 44%
- Degradation rate (%) of ERα in MCF-7 cells (ERα [1]; 10nM compound): 64%
- Degradation rate (%) of ERα in T-47D cells (ERα [2]; 1nM compound): 67%
- Degradation rate (%) of ERα in T-47D cells (ERα [2]; 10nM compound): 85%

Compound: C[C@@H]1Cc2c(ccc3[nH]ncc23)C(c2ccc(N3CCC4(CCC(N5CCC6(CC5)COc5c6ccc6c5CN(C5CCC(=O)NC5=O)C6=O)CC4)CC3)cn2)N1CC(F)(F)F (stereo partly drawn) [K41]
- IC50 (T-47D cells): 41 nM
- IC50 (MCF-7 cells): 590 nM
- Degradation rate (%) of ERα in MCF-7 cells (ERα [1]; 1nM compound): -3%
- Degradation rate (%) of ERα in MCF-7 cells (ERα [1]; 10nM compound): 64%
- Degradation rate (%) of ERα in T-47D cells (ERα [2]; 1nM compound): 54%
- Degradation rate (%) of ERα in T-47D cells (ERα [2]; 10nM compound): 84%
